What all share (test): Kinase selectivity, scanMAX Kinase assay panel (DiscoverX), % control at 1 uM
Format in all cases: binding

Test [1] addresses T1, scanMAX Kinase assay panel (Homo sapiens, UniProt P42336, H1047L).
T1 construct: purchased DiscoverX
To be noted: PIK3CA (H1047L); 1 uM; read-out: Percent Control (%). An outline of the steps: (§1)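 Binding across the scanMAX kinase panel was tested at 1 uM compound. % control = (compound − positive control)/(negative control − positive control) × 100; below 35 counted as active.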

Test [2] addresses T2, scanMAX Kinase assay panel (Homo sapiens, UniProt Q8TF76).
T2 construct: purchased DiscoverX
T2 sequence (Q8TF76 1-798): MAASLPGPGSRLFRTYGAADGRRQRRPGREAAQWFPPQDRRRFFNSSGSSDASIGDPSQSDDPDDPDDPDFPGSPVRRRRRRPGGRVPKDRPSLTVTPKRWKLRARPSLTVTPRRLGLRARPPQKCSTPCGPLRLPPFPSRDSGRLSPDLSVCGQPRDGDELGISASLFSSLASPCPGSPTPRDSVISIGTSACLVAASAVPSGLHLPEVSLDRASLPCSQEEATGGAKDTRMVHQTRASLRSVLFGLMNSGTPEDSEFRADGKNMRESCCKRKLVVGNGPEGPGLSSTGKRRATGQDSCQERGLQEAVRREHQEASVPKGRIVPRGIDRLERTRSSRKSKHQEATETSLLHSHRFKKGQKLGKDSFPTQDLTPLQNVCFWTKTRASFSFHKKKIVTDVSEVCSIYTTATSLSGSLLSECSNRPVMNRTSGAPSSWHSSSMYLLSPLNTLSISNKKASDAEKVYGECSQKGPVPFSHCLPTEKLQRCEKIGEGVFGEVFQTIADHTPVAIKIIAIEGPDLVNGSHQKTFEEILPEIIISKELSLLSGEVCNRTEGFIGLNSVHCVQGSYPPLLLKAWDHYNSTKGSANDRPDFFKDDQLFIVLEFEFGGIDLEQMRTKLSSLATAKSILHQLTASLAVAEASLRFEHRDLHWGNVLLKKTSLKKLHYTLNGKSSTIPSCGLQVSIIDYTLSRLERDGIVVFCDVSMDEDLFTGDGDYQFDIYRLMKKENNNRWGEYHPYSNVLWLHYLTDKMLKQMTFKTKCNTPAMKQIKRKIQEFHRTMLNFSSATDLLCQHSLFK
As to conditions: HASPIN; 1 uM; read-out: Percent Control (%). A digest of the protocol: as §1

Test [3] concerns the target T3, scanMAX Kinase assay panel (Homo sapiens, UniProt Q16513).
T3 construct: purchased DiscoverX
To be noted: PKN2; 1 uM; read-out: Percent Control (%). An outline of the steps: as §1

In test [4] the target is T4, scanMAX Kinase assay panel (Homo sapiens, UniProt Q9UIK4).
T4 construct: purchased DiscoverX
To be noted: DAPK2; 1 uM; read-out: Percent Control (%). An outline of the steps:
as §1

Test [5] concerns the target T5, scanMAX Kinase assay panel (Homo sapiens, UniProt P00519, E255K).
T5 construct: purchased DiscoverX
To be noted: ABL1 (E255K)-phosphorylated; 1 uM; read-out: Percent Control (%). An outline of the steps: as §1

Test [6] addresses T6, scanMAX Kinase assay panel (Homo sapiens, UniProt Q8N4C8).
T6 construct: purchased DiscoverX
To be noted: MINK; 1 uM; read-out: Percent Control (%). A digest of the protocol:
as §1

Test [7] has as its target T7, scanMAX Kinase assay panel (Homo sapiens, UniProt Q9Y6E0).
T7 construct: purchased DiscoverX
As to conditions: MST3; 1 uM; read-out: Percent Control (%). A digest of the protocol:
as §1

For test [8], the target named is T8, scanMAX Kinase assay panel (Homo sapiens, UniProt Q6P2M8).
T8 construct: purchased DiscoverX
To be noted: CAMK1B; 1 uM; read-out: Percent Control (%). An outline of the steps:
as §1

Test [9] addresses T9, scanMAX Kinase assay panel (Homo sapiens, UniProt Q9Y2U5).
T9 construct: purchased DiscoverX
T9 sequence (Q9Y2U5 1-619): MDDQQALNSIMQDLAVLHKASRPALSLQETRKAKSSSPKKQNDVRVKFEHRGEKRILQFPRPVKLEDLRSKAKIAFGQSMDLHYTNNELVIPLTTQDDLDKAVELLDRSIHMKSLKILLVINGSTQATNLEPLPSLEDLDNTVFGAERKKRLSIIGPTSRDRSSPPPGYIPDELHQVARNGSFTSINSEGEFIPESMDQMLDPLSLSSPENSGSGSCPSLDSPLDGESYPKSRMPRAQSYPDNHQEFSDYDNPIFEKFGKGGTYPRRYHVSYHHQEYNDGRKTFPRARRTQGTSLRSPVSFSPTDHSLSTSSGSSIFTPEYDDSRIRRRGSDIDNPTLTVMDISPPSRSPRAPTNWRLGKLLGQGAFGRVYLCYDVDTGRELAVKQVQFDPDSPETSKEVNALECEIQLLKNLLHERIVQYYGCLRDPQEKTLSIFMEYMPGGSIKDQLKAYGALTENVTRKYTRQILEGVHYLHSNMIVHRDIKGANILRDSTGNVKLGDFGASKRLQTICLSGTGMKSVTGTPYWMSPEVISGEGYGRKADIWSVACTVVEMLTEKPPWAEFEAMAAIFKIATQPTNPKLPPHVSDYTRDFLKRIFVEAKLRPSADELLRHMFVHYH
As to conditions: MAP3K2; 1 uM; read-out: Percent Control (%). A digest of the protocol: as §1

The target in test [10] is T10, scanMAX Kinase assay panel (Homo sapiens, UniProt Q9P0L2).
T10 construct: purchased DiscoverX
To be noted: MARK1; 1 uM; read-out: Percent Control (%). A digest of the protocol:
as §1

The target in test [11] is T11, scanMAX Kinase assay panel (Homo sapiens, UniProt Q05655).
T11 construct: purchased DiscoverX
To be noted: PRKCD; 1 uM; read-out: Percent Control (%). A digest of the protocol:
as §1

Molecules are shown by their SMILES.

T3 sequence (Q16513 whole entry): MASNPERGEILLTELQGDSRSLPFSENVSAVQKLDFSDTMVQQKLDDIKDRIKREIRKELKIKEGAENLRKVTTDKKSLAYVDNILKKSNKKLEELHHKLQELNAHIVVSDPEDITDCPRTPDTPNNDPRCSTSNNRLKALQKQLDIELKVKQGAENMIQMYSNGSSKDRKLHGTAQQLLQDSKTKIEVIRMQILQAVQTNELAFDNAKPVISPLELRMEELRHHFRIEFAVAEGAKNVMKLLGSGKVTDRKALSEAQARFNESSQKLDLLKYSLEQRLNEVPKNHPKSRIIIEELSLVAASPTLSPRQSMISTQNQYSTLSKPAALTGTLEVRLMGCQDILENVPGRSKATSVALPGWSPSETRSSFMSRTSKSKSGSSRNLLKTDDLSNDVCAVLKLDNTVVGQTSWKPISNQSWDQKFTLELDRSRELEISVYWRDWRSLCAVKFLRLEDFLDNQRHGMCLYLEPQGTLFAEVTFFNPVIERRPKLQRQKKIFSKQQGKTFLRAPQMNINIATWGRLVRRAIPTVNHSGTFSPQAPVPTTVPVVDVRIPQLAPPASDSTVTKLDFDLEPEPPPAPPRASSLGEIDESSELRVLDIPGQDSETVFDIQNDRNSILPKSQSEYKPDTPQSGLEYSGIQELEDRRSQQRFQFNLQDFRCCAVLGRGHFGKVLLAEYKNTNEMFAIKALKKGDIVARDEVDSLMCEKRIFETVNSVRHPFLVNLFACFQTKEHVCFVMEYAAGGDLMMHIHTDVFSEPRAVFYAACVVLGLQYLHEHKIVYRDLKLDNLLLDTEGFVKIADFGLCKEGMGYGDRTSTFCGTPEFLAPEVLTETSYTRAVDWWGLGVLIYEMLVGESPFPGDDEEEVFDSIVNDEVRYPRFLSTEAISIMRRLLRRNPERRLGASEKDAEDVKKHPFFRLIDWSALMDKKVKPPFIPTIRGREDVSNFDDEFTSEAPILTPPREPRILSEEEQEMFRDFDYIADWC
T10 sequence (Q9P0L2 whole entry): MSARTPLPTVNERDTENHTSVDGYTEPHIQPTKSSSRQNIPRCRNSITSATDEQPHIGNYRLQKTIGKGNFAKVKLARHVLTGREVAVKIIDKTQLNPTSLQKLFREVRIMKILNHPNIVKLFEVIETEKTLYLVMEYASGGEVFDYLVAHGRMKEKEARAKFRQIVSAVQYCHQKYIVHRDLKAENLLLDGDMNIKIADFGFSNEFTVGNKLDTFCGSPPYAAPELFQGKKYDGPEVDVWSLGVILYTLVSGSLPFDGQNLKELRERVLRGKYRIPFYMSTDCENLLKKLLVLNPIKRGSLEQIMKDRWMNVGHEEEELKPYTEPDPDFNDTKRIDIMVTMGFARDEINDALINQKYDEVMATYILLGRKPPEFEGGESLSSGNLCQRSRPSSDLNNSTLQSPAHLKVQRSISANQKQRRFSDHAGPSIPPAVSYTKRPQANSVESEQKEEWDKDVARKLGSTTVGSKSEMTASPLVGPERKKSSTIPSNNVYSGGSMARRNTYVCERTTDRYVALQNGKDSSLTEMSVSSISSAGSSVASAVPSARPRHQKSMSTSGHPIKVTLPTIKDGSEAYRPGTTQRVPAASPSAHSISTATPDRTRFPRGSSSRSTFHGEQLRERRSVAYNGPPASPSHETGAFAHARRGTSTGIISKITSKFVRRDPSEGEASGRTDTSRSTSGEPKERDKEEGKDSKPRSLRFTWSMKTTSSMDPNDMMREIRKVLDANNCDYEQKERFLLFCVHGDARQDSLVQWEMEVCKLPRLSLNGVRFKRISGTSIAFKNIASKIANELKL
T1 sequence (P42336 whole entry H1047L): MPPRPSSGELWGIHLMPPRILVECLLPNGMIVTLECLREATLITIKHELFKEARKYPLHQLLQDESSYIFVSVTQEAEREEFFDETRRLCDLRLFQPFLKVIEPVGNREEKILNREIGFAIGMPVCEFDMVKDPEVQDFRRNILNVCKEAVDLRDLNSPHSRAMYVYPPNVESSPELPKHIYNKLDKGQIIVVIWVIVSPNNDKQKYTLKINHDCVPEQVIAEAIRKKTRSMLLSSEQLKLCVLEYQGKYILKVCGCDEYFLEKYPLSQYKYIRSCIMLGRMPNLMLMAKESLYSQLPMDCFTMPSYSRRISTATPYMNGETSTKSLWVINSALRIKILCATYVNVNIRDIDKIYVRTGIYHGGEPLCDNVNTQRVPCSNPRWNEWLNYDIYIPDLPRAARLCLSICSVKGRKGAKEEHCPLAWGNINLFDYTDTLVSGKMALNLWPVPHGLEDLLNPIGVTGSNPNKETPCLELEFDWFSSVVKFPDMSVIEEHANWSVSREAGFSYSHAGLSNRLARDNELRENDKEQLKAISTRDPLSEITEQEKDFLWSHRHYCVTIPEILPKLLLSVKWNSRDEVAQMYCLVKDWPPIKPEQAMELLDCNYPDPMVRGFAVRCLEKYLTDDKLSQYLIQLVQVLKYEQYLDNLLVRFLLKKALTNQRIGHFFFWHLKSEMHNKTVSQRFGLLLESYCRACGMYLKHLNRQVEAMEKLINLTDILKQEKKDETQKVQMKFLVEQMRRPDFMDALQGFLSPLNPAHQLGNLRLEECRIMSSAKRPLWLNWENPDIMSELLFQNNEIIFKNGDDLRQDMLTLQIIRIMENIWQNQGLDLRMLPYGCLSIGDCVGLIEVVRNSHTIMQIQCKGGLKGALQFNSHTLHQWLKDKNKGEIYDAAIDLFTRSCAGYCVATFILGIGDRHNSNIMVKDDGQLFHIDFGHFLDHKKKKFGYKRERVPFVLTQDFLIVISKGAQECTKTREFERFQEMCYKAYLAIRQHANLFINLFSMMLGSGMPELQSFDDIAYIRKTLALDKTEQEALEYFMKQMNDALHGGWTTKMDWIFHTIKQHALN
T6 sequence (Q8N4C8 whole entry): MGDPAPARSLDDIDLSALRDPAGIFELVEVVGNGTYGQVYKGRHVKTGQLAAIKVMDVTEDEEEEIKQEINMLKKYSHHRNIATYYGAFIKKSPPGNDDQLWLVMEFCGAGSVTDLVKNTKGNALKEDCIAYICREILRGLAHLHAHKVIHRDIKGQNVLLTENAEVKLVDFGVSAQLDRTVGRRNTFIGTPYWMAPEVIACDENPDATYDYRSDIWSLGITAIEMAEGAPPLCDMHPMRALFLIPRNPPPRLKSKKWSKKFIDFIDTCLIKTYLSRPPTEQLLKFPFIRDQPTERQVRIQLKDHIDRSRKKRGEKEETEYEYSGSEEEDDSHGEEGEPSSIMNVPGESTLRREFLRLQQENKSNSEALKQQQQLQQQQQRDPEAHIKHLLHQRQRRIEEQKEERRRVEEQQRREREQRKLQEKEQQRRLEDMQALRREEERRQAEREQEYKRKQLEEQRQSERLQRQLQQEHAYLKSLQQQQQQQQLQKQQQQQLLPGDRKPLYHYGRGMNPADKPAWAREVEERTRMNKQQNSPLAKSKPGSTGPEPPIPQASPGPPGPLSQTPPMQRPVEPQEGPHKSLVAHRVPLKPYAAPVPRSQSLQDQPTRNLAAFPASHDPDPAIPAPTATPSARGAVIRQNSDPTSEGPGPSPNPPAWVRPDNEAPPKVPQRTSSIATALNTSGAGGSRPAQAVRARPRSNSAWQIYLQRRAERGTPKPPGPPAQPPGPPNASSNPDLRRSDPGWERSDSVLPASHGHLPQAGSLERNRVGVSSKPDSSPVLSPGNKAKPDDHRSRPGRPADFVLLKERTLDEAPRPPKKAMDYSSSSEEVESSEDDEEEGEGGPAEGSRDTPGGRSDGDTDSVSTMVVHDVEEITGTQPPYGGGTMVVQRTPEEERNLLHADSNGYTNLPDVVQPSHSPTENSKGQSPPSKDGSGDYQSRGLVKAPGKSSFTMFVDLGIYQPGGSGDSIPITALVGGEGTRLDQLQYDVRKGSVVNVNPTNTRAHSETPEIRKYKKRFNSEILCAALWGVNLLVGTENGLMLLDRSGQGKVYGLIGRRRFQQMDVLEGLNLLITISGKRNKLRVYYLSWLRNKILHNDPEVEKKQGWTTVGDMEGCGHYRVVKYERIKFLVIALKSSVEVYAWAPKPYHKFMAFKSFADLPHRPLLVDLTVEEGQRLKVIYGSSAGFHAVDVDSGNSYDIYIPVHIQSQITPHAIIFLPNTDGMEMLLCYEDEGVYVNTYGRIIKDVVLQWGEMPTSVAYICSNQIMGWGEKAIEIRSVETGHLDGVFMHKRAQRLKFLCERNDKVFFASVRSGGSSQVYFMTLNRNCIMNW
T7 sequence (Q9Y6E0 whole entry): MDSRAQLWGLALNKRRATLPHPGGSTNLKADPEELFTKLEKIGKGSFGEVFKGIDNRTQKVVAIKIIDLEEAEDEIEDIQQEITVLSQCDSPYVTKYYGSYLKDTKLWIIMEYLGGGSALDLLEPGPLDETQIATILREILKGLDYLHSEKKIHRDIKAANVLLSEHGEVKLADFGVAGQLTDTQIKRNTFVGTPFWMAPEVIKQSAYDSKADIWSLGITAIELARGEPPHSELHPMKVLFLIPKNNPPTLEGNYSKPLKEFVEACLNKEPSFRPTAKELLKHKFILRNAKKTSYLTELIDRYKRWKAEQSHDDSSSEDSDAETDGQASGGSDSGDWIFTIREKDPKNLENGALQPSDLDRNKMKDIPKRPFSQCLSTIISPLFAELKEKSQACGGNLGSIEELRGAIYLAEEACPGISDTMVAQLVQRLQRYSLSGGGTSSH
T8 sequence (Q6P2M8 whole entry): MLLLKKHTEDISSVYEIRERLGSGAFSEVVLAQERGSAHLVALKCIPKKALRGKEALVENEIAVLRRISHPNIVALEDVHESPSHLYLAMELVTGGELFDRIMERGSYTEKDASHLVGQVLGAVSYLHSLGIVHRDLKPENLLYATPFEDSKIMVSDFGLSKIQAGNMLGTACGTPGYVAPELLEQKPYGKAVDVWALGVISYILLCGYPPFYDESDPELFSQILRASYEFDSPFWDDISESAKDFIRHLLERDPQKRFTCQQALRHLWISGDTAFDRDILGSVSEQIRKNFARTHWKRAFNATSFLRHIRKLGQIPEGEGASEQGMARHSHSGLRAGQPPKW

Turning to `Cc1ccc(C(=O)Nc2ccc(CN3CCN(C)CC3)c(C(F)(F)F)c2)cc1C#Cc1cnc2c(Nc3cnn(C)c3)cccn12` [Example 1, 4-methyl-3-((8-((1-methyl-1H-pyrazol-4-yl)amino)imidazo[1,2-a]pyridin-3-yl)ethynyl)-N-(4-((4-methylpiperazin-1-yl)methyl)-3-(trifluoromethyl)phenyl)benzamide], the remaining binding at 1 µM was determined as 100% in test [1]; 80% in [2]; 83% in test [3]; 82% in [4]; 0% in test [5]; 2% in test [6]. Besides, the remaining binding at 1 µM in test [7] was determined as 62%; in test [8] it was 62%; in [9] it was 1%; in test [10] it was 78%; in test [11], 61%.

As for `Cc1ccc(NC(=O)C2(C(=O)Nc3ccc(F)cc3)CC2)cc1C#Cc1cnc2c(Nc3cnn(C(C)C)c3)cccn12` [Example 78], the remaining binding at 1 µM was 92% in [1]; 85% in [2]; 89% in [3]; 100% in test [4]; 84% in [5]; 87% in test [6]. Moreover, the remaining binding at 1 µM in test [7], in test [8], in [9], in [10] and in test [11] was 100% in each case.

For the molecule `Cc1cn(-c2cc(NC(=O)c3ccc(C)c(C#Cc4cnc5c(Nc6cnn(C)c6)cccn45)c3)cc(C(F)(F)F)c2)cn1` [Example 12, 4-methyl-N-(3-(4-methyl-1H-imidazol-1-yl)-5-(trifluoromethyl)phenyl)-3-((8-((1-methyl-1H-pyrazol-4-yl)amino)imidazo[1,2-a]pyridin-3-yl)ethynyl)benzamide], the remaining binding at 1 µM in test [1] was found to be 100%; in test [2], 100%; in test [3], 83%; in test [4] it was 97%; in test [5] it was 8%; in test [6], 44%. Besides, the remaining binding at 1 µM in test [7] is 86%; in [8], 100%; in test [9], 84%; in test [10], 95%; in test [11], 81%.

Values taken from patent US10870647B2, “Imidazopyridine derivative, method for preparing same, and pharmaceutical composition containing same as active ingredient for preventing or treating cancer” (DAEGU-GYEONGBUK MEDICAL INNOVATION FOUNDATION, priority 2016, dated 2020).
